In ChEMBL document CHEMBL1811845, “Modulation of GABAA-receptors by honokiol and derivatives: subtype selectivity and structure-activity relationship” (J Med Chem, 2011):

Assays:
[1] = system: Oocyte; experiment: Modulation of GABA alpha1beta2gamma2s receptor expressed in Xenopus laevis oocytes assessed as potentiation of GABA-induced chloride current at holding potential -70 mV at 10 uM by two-microelectrode voltage clamp technique relative to GABA; assay type: cell-based
[2] = system: Oocyte; experiment: Modulation of GABA alpha1beta2gamma2s receptor expressed in Xenopus laevis oocytes assessed as potentiation of GABA-induced chloride current at holding potential -70 mV at 10 uM by two-microelectrode voltage clamp technique in presence of 1 uM of flumazenil relative to GABA; assay type: cell-based
[3] = Octanol-water partition coefficient, log P of the compound; assay type: physicochemical; conditions: read-out: logP

## C=CCc1ccc(O)c(-c2ccc(O)c(CC=C)c2)c1 [HONOKIOL]
[1]
  Activity: 101%
[2]
  Activity: 116%
[3]
  logP: 5.16
